Data reported in US9790228B2, “Heterocyclic kinase inhibitors” (Intellikine LLC, priority 2008, dated 2017).

Experiments:
p110δ/p85α = p110δ/p85α (Homo sapiens (Human), UniProt O00329); assay: PI3K δ inhibition assay (TLC lipid kinase or HTRF); type: biochemical
Method in brief: (§1)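 IC50 from TLC lipid kinase assay (25 mM HEPES pH 7.4, 10 mM MgCl2, 100 μg/ml phosphatidylinositol, 10 or 100 μM γ-32P-ATP, 5 min RT, phosphorimager) at 10–12 two-fold dilutions, or HTRF (10 μM PIP2, 10 μM ATP, 1 h RT) measuring PIP3 by TR-FRET; 2% DMSO final.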

p110γ = p110γ (Homo sapiens (Human), UniProt P48736); assay: PI3K γ inhibition assay (TLC lipid kinase or HTRF); type: biochemical
p110γ, sequence (P48736 whole entry): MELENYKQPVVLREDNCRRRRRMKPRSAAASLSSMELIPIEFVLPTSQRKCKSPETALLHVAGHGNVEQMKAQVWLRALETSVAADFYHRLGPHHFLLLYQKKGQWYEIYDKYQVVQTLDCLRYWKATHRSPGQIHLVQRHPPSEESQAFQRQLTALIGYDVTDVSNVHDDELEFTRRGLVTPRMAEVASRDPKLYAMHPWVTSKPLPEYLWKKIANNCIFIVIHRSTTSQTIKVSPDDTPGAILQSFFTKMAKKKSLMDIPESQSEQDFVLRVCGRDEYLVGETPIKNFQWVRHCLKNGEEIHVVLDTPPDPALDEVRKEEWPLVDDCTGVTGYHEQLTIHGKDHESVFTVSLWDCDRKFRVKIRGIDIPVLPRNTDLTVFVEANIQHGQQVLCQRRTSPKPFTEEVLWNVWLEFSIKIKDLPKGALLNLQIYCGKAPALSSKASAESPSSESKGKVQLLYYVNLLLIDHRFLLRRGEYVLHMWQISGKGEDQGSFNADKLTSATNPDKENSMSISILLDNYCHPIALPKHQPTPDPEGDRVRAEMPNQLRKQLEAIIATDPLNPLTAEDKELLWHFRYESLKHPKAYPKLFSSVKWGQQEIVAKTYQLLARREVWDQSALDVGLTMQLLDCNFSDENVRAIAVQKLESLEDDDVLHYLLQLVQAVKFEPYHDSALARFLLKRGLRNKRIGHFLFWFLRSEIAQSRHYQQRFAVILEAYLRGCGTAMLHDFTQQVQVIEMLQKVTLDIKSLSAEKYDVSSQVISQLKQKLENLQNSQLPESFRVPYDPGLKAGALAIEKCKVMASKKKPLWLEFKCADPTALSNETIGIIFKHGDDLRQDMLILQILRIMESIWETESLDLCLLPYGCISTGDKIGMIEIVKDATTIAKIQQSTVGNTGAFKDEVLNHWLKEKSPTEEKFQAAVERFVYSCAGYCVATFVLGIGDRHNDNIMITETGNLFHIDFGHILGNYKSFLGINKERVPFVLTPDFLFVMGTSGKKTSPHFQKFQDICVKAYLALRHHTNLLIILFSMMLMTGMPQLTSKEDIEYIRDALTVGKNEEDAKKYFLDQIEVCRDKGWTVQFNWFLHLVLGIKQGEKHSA
Method in brief: as §1

p110α/p85α = p110α/p85α (Homo sapiens (Human), UniProt P42336); assay: PI3K α inhibition assay (TLC lipid kinase or HTRF); type: biochemical
p110α/p85α, sequence (P42336 whole entry): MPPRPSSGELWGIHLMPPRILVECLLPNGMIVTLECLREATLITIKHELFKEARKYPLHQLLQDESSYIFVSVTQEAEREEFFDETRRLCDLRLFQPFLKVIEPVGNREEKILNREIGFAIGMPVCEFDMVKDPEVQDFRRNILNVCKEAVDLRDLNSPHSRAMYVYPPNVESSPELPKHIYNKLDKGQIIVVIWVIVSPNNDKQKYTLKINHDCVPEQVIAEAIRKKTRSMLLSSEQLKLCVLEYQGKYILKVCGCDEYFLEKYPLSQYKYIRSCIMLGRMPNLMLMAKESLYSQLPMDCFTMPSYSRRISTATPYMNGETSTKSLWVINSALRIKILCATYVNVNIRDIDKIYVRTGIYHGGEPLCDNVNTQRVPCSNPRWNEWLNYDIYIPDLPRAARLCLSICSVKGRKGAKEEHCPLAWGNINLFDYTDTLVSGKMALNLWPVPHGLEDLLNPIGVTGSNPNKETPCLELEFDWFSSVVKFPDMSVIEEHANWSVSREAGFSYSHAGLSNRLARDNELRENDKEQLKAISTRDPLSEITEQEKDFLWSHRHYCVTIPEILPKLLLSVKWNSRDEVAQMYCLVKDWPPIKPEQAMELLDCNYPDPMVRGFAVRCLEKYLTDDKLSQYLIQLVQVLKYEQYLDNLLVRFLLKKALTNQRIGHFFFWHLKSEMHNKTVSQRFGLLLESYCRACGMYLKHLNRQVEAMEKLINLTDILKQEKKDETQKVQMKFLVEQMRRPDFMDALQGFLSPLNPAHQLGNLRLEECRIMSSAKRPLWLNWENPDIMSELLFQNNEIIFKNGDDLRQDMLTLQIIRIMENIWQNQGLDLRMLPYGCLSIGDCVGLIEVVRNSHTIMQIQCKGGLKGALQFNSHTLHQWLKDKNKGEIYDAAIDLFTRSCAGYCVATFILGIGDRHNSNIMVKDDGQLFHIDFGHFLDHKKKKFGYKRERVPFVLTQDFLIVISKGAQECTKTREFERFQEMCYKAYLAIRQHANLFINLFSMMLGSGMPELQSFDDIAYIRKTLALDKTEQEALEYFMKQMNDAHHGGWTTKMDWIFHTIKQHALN
p110α/p85α, sequence (P27986 whole entry partner): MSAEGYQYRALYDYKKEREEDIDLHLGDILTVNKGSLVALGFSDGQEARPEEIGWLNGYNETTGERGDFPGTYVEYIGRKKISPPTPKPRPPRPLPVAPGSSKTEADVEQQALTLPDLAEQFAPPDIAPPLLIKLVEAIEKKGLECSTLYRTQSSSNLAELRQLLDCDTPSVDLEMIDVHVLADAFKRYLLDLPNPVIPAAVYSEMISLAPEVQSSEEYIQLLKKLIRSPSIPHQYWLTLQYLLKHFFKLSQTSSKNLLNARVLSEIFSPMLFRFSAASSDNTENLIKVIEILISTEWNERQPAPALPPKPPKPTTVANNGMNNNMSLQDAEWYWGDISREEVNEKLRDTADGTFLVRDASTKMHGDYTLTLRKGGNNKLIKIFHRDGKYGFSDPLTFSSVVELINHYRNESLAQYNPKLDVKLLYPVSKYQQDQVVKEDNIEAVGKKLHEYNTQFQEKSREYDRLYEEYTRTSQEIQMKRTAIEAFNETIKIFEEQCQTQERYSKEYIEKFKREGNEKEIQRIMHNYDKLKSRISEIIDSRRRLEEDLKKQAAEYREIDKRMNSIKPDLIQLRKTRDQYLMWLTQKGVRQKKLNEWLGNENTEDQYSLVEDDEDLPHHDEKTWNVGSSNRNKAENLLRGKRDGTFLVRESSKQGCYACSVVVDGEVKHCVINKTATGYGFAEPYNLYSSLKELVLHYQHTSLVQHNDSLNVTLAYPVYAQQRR
Method in brief: as §1

p110β/p85α = p110β/p85α (Homo sapiens, UniProt P42338); assay: PI3K β inhibition assay (TLC lipid kinase or HTRF); type: biochemical; details: read-out: PI3K β IC50
p110β/p85α, sequence (P42338 whole entry, looked up): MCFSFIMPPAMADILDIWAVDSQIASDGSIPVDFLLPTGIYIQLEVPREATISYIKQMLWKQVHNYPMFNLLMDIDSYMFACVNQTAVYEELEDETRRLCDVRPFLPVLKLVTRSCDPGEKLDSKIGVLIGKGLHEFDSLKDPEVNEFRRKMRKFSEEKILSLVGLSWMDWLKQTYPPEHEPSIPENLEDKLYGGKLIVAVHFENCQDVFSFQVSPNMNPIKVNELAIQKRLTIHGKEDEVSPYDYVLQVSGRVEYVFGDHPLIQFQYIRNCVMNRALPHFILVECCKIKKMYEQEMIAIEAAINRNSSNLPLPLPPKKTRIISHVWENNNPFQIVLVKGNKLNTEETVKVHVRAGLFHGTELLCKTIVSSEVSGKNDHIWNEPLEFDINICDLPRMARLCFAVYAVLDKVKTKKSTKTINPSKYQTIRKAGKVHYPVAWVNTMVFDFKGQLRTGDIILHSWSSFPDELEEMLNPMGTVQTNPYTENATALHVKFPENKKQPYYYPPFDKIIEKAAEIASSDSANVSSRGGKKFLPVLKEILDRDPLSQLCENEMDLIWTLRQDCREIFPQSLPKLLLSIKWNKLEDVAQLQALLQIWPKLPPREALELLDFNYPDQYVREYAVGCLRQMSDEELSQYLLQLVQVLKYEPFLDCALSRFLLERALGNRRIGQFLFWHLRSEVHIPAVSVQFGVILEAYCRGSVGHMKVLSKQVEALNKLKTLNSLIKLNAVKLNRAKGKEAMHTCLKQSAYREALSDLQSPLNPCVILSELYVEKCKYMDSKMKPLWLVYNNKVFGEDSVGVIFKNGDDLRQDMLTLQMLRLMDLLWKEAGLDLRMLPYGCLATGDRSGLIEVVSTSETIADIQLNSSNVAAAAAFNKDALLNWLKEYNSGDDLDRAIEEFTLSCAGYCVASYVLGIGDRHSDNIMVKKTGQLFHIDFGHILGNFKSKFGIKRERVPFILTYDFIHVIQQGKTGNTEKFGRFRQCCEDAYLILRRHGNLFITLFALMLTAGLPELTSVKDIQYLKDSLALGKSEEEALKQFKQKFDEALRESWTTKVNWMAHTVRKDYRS
Method in brief: as §1

Balb/c splenic B cells = assay: B cell activation and proliferation assay (Alamar Blue); type: cell-based, mouse; details: Mus musculus, B-cell
Description: The ability of one or more subject compounds to inhibit B cell activation and proliferation is determined according to standard procedures known in the art. For example, an in vitro cellular proliferation assay is established that measures the metabolic activity of live cells. The assay is performed in a 96 well microtiter plate using Alamar Blue reduction. Balb/c splenic B cells are purified over a Ficoll-Paque™ PLUS gradient followed by magnetic cell separation using a MACS B cell Isolation Kit (Miletenyi). Cells are plated in 90 ul at 50,000 cells/well in B Cell Media (RPMI+10% FBS+Penn/Strep+50 uM bME+5 mM HEPES). A compound disclosed herein is diluted in B Cell Media and added in a 10 ul volume. Plates are incubated for 30 min at 37 C and 5% CO2 (0.2% DMSO final concentration). A 50 ul B cell stimulation cocktail is then added containing either 10 ug/ml LPS or 5 ug/ml F(ab′)2 Donkey anti-mouse IgM plus 2 ng/ml recombinant mouse IL4 in B Cell Media. Plates are incubated for 72 hours at 37° C. and 5% CO2. A volume of 15 uL of Alamar Blue reagent is added to each well and plates are incubated for 5 hours at 37 C and 5% CO2. Alamar Blue fluoresce is read at 560Ex/590Em, and IC50 or EC50 values are calculated using GraphPad Prism 5.

p110δ/p85α, sequence (O00329 whole entry): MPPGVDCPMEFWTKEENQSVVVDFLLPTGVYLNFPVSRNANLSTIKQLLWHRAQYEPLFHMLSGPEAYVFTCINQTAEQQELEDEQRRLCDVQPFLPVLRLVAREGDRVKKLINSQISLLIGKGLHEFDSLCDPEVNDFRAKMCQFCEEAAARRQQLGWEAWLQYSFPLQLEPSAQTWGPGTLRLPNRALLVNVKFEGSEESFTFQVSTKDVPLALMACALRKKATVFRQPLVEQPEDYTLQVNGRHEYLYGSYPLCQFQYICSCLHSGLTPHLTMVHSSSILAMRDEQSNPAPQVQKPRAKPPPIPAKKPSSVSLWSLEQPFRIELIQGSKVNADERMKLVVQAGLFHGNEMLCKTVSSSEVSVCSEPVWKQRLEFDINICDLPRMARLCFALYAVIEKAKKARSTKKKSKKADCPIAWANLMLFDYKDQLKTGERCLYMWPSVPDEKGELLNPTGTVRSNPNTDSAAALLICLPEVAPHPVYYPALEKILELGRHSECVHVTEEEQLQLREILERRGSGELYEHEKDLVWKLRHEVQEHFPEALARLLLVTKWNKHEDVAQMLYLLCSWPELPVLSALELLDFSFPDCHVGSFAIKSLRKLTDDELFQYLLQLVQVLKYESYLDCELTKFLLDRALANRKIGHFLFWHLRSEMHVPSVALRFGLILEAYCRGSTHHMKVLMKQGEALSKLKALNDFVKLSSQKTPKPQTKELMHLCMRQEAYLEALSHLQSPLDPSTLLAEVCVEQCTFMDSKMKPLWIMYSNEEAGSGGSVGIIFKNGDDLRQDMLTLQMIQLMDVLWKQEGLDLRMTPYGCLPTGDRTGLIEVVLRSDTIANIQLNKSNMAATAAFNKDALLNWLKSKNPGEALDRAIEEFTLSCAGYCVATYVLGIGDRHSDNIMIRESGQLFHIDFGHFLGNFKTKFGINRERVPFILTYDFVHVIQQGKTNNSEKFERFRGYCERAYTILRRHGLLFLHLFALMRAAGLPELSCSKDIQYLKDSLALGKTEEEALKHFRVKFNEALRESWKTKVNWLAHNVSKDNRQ
p110δ/p85α, sequence (P27986 whole entry partner): as the sequence (P27986 whole entry partner) above

SMILES	IC50 (p110δ/p85α) [nM]	IC50 (p110γ) [nM]	IC50 (p110α/p85α) [nM]	IC50 (p110β/p85α) [nM]	EC50 (Balb/c splenic B cells) [nM]
Nc1ncc2cc(-c3nn(Cc4cc5ccccc5nc4-c4ccccc4)c4ncnc(N)c34)ccc2n1 [Compound 143]	< 100	< 100	100 to 1000	> 1000	< 100
Nc1ncc2cc(-c3nn(Cc4cc5ccccc5nc4-c4ccccc4F)c4ncnc(N)c34)ccc2n1 [Compound 135]	< 100	< 100	100 to 1000	> 1000	< 100
CC(Nc1ncnc2[nH]cnc12)c1cc2ccccc2nc1N1CCN(C)CC1 (stereo not shown) [Compound 82]	< 100	> 1000	> 1000	> 1000	< 100
Cc1ccccc1-c1nc2c(C)cccc2cc1Cn1nc(-c2cc(O)cc(F)c2)c2c(N)ncnc21 [Compound 8]	< 100	< 100	> 1000	> 1000	< 100
CC(=O)Nc1nc2ccc(-c3nn(Cc4cc5ccccc5nc4N4CCN(C)CC4)c4ncnc(N)c34)cc2[nH]1 [Compound 185]	< 100	> 1000	> 1000	100 to 1000	< 100
CC(c1cc2ccccc2nc1-c1ccccc1)n1nc(-c2cccc(O)c2)c2c(N)ncnc21 (stereo not shown) [Compound 59]	< 100	100 to 1000	> 1000	> 1000	< 100
CC(C)N1CCN(c2nc3ccccc3cc2Cn2nc(-c3cc(O)cc(F)c3)c3c(N)ncnc32)CC1 [Compound 69]	< 100	> 1000	> 1000	> 1000	< 100
Cc1ccccc1-c1nc2ccccc2cc1Cn1nc(-c2ccc3oc(N)nc3c2)c2c(N)ncnc21 [Compound 133]	< 100	< 100	> 1000	> 1000	100 to 1000
CC(C)c1ccccc1-c1nc2ccccc2cc1Cn1nc(-c2cc(O)cc(F)c2)c2c(N)ncnc21 [Compound 17]	< 100	< 100	100 to 1000	100 to 1000	< 100
Nc1ncnc2c1c(-c1cccc(O)c1)nn2Cc1nc2ccccc2nc1N1CCCC1 [Compound 105]	< 100	100 to 1000	> 1000	> 1000	100 to 1000

Now from value to compound, other results behind:

IC50 (p110δ/p85α) [nM]	IC50 (p110γ) [nM]	IC50 (p110α/p85α) [nM]	IC50 (p110β/p85α) [nM]	SMILES	EC50 (Balb/c splenic B cells) [nM]
< 100	> 1000	> 1000	< 100	CCN1CCN(c2nc3ccccc3cc2Cn2nc(-c3cc(O)cc(F)c3)c3c(N)ncnc32)CC1 [Compound 38]	< 100
< 100	100 to 1000	> 1000	> 1000	Cc1ccccc1-c1nc2ccccc2cc1Cn1nc(I)c2c(N)ncnc21 [Compound 3]	100 to 1000
< 100	< 100	> 1000	> 1000	Nc1nc2ccc(-c3nn(Cc4cc5ccccc5nc4-c4ccccc4C(F)(F)F)c4ncnc(N)c34)cc2[nH]1 [Compound 181]	100 to 1000
< 100	< 100	> 1000	> 1000	Nc1ncnc2ccc(-c3nn(Cc4cc5ccccc5nc4-c4ccccc4F)c4ncnc(N)c34)cc12 [Compound 138]	100 to 1000
< 100	> 1000	> 1000	100 to 1000	Nc1ncnc2c1c(-c1cc(O)cc(F)c1)nn2Cc1cc2ccccc2nc1CCN1CCCC1 [Compound 165]	< 100
< 100	< 100	> 1000	> 1000	Cc1ccccc1-c1nc2c(C)cccc2cc1Cn1nc(I)c2c(N)ncnc21 [Compound 7]	100 to 1000
< 100	100 to 1000	100 to 1000	> 1000	CC(=O)Nc1nc2ccc(-c3nn(Cc4cc5ccccc5nc4CCN4CCCC4)c4ncnc(N)c34)cc2s1 [Compound 166]	< 100
